Experimental data published in US8007833B2, “Method of reducing infections and/or air embolisms associated with vascular access procedures” (Biolife, L.L.C., priority 2009, dated 2011).

What was measured:
Assay in all cases: Biofilm Eradication with Calgary Biofilm Device
Format in all cases: cell-based
S. epidermidis = tested on: S. epidermidis
Description: (§1) VI. Biofilm Eradication with Calgary Biofilm Device [Innovotech]
(§2) Minimum Inhibitory Concentration (MIC) Breakpoints

S. aureus = tested on: S. aureus
Description: as §1, §2

P. aeruginosa = tested on: P. aeruginosa
Description: as §1, §2
(§3) Minimum Bactericidal Concentration (MBC) Breakpoints
(§4) Minimum Biofilm Eradication Concentration (MBEC) Breakpoints
(§5) Minimum Concentration that Kills Biofilms with Log R of 3 or Higher

MRS. epidermidis = tested on: MRS. epidermidis
Description: as §1, §3, §4, §5

MRS. aureus = tested on: MRS. aureus
Description: as §1, §3, §4, §5

Gentamicin
Minimum Inhibitory Concentration (MIC) Breakpoints (S. epidermidis): <8 µg/mL | Minimum Inhibitory Concentration (MIC) Breakpoints (S. aureus): <8 µg/mL | Minimum Bactericidal Concentration (MBC) Breakpoints (P. aeruginosa; P. aeruginosa): <8 µg/mL | Minimum Inhibitory Concentration (MIC) Breakpoints (P. aeruginosa; P. aeruginosa): <8 µg/mL | Minimum Biofilm Eradication Concentration (MBEC) Breakpoints (P. aeruginosa; P. aeruginosa biofilm): >1024 µg/mL | Minimum Concentration that Kills Biofilms with Log R of 3 or Higher (P. aeruginosa; P. aeruginosa biofilm): 64 ug/mL | Log 10 Reduction (P. aeruginosa; P. aeruginosa biofilm, at 256 ug/mL, 128 ug/mL and 64 ug/mL): greater than three | Minimum Bactericidal Concentration (MBC) Breakpoints (MRS. epidermidis; MRS. epidermidis): <8 µg/mL | Minimum Biofilm Eradication Concentration (MBEC) Breakpoints (MRS. epidermidis; MRS. epidermidis biofilm): >1024 µg/mL | Minimum Concentration that Kills Biofilms with Log R of 3 or Higher (MRS. epidermidis; MRS. epidermidis biofilm): >1024 ug/mL | Log 10 Reduction (MRS. epidermidis; MRS. epidermidis biofilm, at any concentration): ≤ 3 | Minimum Bactericidal Concentration (MBC) Breakpoints (MRS. aureus; MRS. aureus): <16 µg/mL | Minimum Biofilm Eradication Concentration (MBEC) Breakpoints (MRS. aureus; MRS. aureus biofilm): 1024 µg/mL | Minimum Concentration that Kills Biofilms with Log R of 3 or Higher (MRS. aureus; MRS. aureus biofilm): 1024 ug/mL | Log 10 Reduction (MRS. aureus; MRS. aureus biofilm, at only 1024 ug/mL): greater than 3
